US20250188457A1, “COMPOSITIONS AND METHODS FOR THE TREATMENT OF GLIOBLASTOMA BY INHIBITION OF THE TFPI2-CD51-STAT6 SIGNALING AXIS” (Northwestern University, priority 2023, published 2025)

Key:
[1] = test system: mouse primary CD8+ T cells cocultured with SIM-A9 microglia; experiment: Mouse microglia and CD8+ T cell co-culture, flow cytometry; assay type: cell-based; conditions: TFPI2 recombinant protein 20 ng/ml; AS1517499 25 nM
Description: Primary mouse CD8^+ T cells were isolated from the spleens of C57BL/6 mice using a CD8^+ T cell isolation kit (Miltenyi Biotec, #130-104-075) according to manufacturer's instructions. Isolated CD8^+ T cells were cultured in RPMI 1640 media (Gibco, #22400-089) containing 10% FBS, 50 μM 2-Mercaptoethanol (Sigma, #M7522), and 1:100 antibiotic-antimycotic. Then, primary mouse CD8^+ T cells were expanded by 30 U/ml mouse IL-2 (Miltenyi Biotec, #130-120-662) and activated by Dynabeads® mouse T-activator CD3/CD28 (Gibco, #11456D) at bead-to-cell ratio of 1:1 before analysis and co-culture studies. For membrane protein staining, the single-cell suspensions were washed with PBS and then incubated with fixable viability dye (Invitrogen, #5211229035) on ice for 10 min. Following washing with PBS, cells were incubated with the anti-CD16/CD32 cocktail (BioLegend, #103132) in 2% BSA PBS to block Fc receptors for 30 min on ice. […] Samples were read in BD FACSymphony flow cytometer and analyzed in FlowJo v10.8.1. […] Then cell suspensions were rewashed in permeabilization buffer and read in BD FACSymphony flow cytometer.

[2] = test system: JURKAT T cells cocultured with PrhMG; experiment: Human microglia-T cell co-culture, flow cytometry; assay type: cell-based; conditions: TFPI2 recombinant protein 20 ng/ml; AS1517499 25 nM
Description: For membrane protein staining, the single-cell suspensions were washed with PBS and then incubated with fixable viability dye (Invitrogen, #5211229035) on ice for 10 min. Following washing with PBS, cells were incubated with the anti-CD16/CD32 cocktail (BioLegend, #103132) in 2% BSA PBS to block Fc receptors for 30 min on ice. Different antibody combinations, including Percp/Cy5.5 anti-mouse CD45 (BioLegend, #103132), AF488 anti-mouse CD3 (BioLegend, #100210), BV421 anti-mouse CX3CR1 (BD Bioscience, #567531), BUV395 anti-mouse CD4 (BD Bioscience, #740208), BV711 anti-mouse CD8 (BioLegend, #100747), PE/Cy7 anti-mouse/human CD11b (BioLegend, #101216), PE anti-mouse CD68 (BD Bioscience, #566386), PE anti-mouse PD1 (BioLegend, #135205), AF647 anti-mouse CD206 (BD Bioscience, #565250), AF647 anti-human CD206 (BioLegend, #321116), PE anti-human CD69 (BioLegend, #310906), PE/Cy7 anti-mouse CD69 (BioLegend, #104512), and BV650 anti-human HLA-DR (BioLegend, #307650) were added to cell suspensions for 30 min on ice. […] Samples were read in BD FACSymphony flow cytometer and analyzed in FlowJo v10.8.1. […] Then cell suspensions were rewashed in permeabilization buffer and read in BD FACSymphony flow cytometer.

NC(=O)c1cnc(NCCc2ccc(O)c(Cl)c2)nc1NCc1ccccc1 [AS1517499]
decrease of CD8+ T cell viability by TFPI2-polarized microglia [1]: negated | reduction of the percentage of CD8+CD69+ and CD8+IFNγ+ T cells by TFPI2-treated microglia [1]: prevented | suppression of JURKAT T cell viability and activation by TFPI2-polarized microglia [2]: prevented
